Measurements as given in article PMC9468151, “Identification of a binding site on soluble RANKL that can be targeted to inhibit soluble RANK-RANKL interactions and treat osteoporosis” (Nature Communications, 2022).
Values joined by “and” are separate entries in the source; they are usually repeats but may differ in a detail not shown here. Equal values may be shown once. Read-outs that look alike come from different tables or passages of the source.

Columns and labels:
sRANKL = molecular target: T1, sRANKL (Rattus norvegicus, UniProt Q9ESE2, D175N); experiment: Isothermal titration calorimetry (ITC) with sRANKL; format: binding; details: for Kd: 25 °C, PBS 0.8% DMSO
T1 construct: (1) sRANKL (rat 159-318 aa); His6-sumo (N, cleaved yes); made in house; host or cells: Escherichia coli BL21 (DE3)
T1 sequence (Q9ESE2 159-318 D175N): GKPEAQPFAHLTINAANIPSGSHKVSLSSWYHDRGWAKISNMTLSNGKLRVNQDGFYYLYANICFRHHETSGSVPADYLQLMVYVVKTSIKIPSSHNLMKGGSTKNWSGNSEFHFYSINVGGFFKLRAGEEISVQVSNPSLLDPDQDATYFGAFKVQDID
Experimental: ITC titrations were performed on the MicroCal iTC200 system at 25 °C[55]. Working stocks of compound S3-15 were prepared in 100% DMSO at 50 mM and then diluted to 500 μM at PBS with final DMSO concentration at 0.8% (v/v). PBS with 0.8% DMSO was used as ITC buffer. Purified sRANKL or L-RANKL protein was buffer exchanged into same ITC buffer using a Millipore spin column. S3-15 at 500 μM was loaded into a syringe and protein was loaded into an isothermal calorimeter cell. During titration, S3-15 in the […] was injected (2 μL per injection, 25 injections in total, and 180 s between each injection) regularly from a rotating syringe into protein solution in the isothermal calorimeter cell. The sample cell was stirred at 385 rpm. Reference cell power was set to 5 μcal/s. Control experiments were conducted under the same conditions using buffer solution instead of S3-15. Data were analyzed using a one-site binding model in Origin 7.1 software for ITC version 7.0 (MicroCal). The dissociation constant, KD, was calculated according to equation KD = 1/K. All other parameters, K ([…]), N (varying the stoichiometry), ΔH (enthalpy of the reaction), and ΔG ([…] of the reaction) were determined from the titration data.

sRANKL trimerization = molecular target: T2, sRANKL trimerization (Rattus norvegicus, UniProt Q9ESE2, D175N); experiment: Cross-link assay of sRANKL trimerization; format: biochemical
T2 construct: (1) sRANKL (rat 159-318 aa); His6-sumo (N, cleaved yes); made in house; host or cells: Escherichia coli BL21 (DE3)
Source text: the effect of S3-15 on RANKL self-trimerization. […]
control), S3 and S3-15 -treated sRANKL samples. The sRANKL dimer and monomer […]
trimerization process in vitro. […]
line 18 and, Figure S4L of the manuscript. […]
convinced that our sRANKL selective inhibitors does attenuate RANKL-RANK interaction without affect RANKL trimerization.”.
3. Does S3-15 affect the binding of sRANKL and mRANKL to OPG, an important
Response: To answer this question, we have performed a number of experiments. The pull-down assay was conducted to explore the effects of S3-15 on sRANKL and OPG […]
sRANKL to OPG at high concentration (10 and 1 μM) but not low concentration (0.3 μM). Three more experiments on mRANKLs have conducted to study if S3-15 affects the binding of mRANKL to OPG. Two of the experiments are on human and mouse mRANKL expressed in 293T cell, the other is on the mRANKL expressed in MC3T3-E1 osteogenic precursor cells. […]
affect the binding of mRANKL to OPG at concentration of 1 μM. […]
been documented in the page 11 at line 21 and Figure S4M-S4P of the manuscript.
Here is the paragraph we have added to the manuscript: […]

[1] = tested on: human sRANKL and human OPG; experiment: In vitro pull-down assay of sRANKL binding to OPG
Experimental: To evaluate whether S3-15 affects the binding of sRANKL or mRANKL to OPG, we did the pull-down assay.
sRANKL-OPG: 200 ng human sRANKL with his-sumo tag was incubated with Ni gel at 4 °C for 10 min. Then the Ni gel was washed with PBS for 3 times. 500 μL PBS that contains 100 ng Fc tag human OPG. Then S3-15 was treated in different concentration (0, 10, 1 and 0.3 μM). The mixtures were incubating at 4 °C for 30 min. Washed with PBS for 3 times. 500 μL 1% Triton X-100 in PBS was then added at 4 °C. The concentration of OPG was tested by OPG ELISA kit (USCN, China).

L-RANKL = molecular target: T3, L-RANKL (Rattus norvegicus, UniProt Q9ESE2, D175N); experiment: STD NMR binding assay with L-RANKL; details: 100 μM protein, 5 mM compound
T3 construct: (3) mRANKL (sRANKL-GSGS-sRANKL, rat 159-318 aa); His6-sumo (N); made in house; host or cells: Escherichia coli BL21 (DE3)
T3 sequence (Q9ESE2 with tags, fused parts or gaps D175N): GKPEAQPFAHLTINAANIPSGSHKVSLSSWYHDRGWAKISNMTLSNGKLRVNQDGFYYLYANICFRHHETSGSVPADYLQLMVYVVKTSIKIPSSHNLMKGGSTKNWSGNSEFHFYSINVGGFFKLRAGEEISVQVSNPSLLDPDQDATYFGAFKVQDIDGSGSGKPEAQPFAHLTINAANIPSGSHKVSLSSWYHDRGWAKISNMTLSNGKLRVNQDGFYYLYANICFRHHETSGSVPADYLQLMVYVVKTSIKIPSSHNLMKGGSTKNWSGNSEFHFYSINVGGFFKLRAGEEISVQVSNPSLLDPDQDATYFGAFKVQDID
Experimental: For NMR studies, purified sRANKL or L-RANKL protein samples were buffer exchanged into PBS (Gbico, C10010500BT, pH7.4) using a Millipore spin column (1500 × g for 15 min at 4 °C, repeated six times, each time adding fresh PBS and discarding the flow-through). Protein concentration was determined using BCA method according to the procedure of Pierce^TM BCA Protein Assay Kit (Thermo Fisher Scientific). Compound S3-15 powder was dissolved in H2O as a concentration of 10 mM.
Protein saturation transfer difference (STD) experiments were performed on Bruker Avance III 500 (500 MHz) spectrometer (Columbia University) at 300 K using triple-resonance cryogenic probes optimized for proton detection. All experiments were performed using an independent sample for each experimental measurement as a 500 μL sample in NMR tubes with 100 μM protein and […] S3-15 in final concentration. Uniformly, for STD assay all samples were contained 50 μL protein, 200 μL S3-15 (10 mM in H2O), and 250 μL D2O; for S3-15 two-dimensional spectra reference, samples were 50 μL PBS, 200 μL S3-15 (10 mM in H2O) and 250 μL D2O.

| Structure (SMILES) | Kd (sRANKL) | effect on trimerization of sRANKL (sRANKL trimerization) | sRANKL-OPG binding signal (fig. S4m) [1] | sRANKL and OPG binding ([1]; 0.3 μM) | sRANKL-OPG binding signal (fig. S4m) ([1]; 0.3) | sRANKL and OPG binding ([1]; 10 and 1 μM) | STD-NMR binding to L-RANKL (mRANKL) (L-RANKL) | SI (sRANKL over binary-RANKL) (sRANKL; ratio of ITC KD) |
| --- | --- | --- | --- | --- | --- | --- | --- | --- |
| CCOC(=O)c1sc(NC(=O)/C(=N/Nc2ccc(O)cc2C(=O)O)C(C)=O)nc1C [S3-05] | 6.58 µM | – | – | – | – | – | – | – |
| CCOC(=O)c1sc(NC(=O)/C(=N/Nc2ccccc2C(=O)O)C(C)=O)nc1C [S3, (E)-2-(2-(1-((5-(ethoxycarbonyl)-4-methylthiazol-2-yl)amino)-1,3-dioxobutan-2-ylidene) hydrazinyl) benzoic acid] | – | cannot affect | – | – | – | – | – | – |
| CC(=O)/C(=N\Nc1ccccc1C(=O)O)C(=O)Nc1ccccn1 [S3-15] | 5.78 µM | cannot affect the trimerization of sRANKL | 0.6462 and 0.65 and 0.761 | cannot affects | 0.7746 and 0.9001 and 1.2775 | significantly suppressed | low binding affinity | 21 |
